# Source: ChEMBL document CHEMBL3351859, “Indoleamine 2,3-dioxygenase inhibitors: potential treatment for cancer, sepsis, and more” (ACS Med Chem Lett, 2014)
# Target: Indoleamine 2,3-dioxygenase 1 (Homo sapiens, UniProt P14902)
# Test: Inhibition of intracellular IDO1 activity in human HeLa cells assessed as L-kynurenine production by Ehrlichs test
# Assay type: cell-based
# Sequence of Indoleamine 2,3-dioxygenase 1 (P14902 whole entry): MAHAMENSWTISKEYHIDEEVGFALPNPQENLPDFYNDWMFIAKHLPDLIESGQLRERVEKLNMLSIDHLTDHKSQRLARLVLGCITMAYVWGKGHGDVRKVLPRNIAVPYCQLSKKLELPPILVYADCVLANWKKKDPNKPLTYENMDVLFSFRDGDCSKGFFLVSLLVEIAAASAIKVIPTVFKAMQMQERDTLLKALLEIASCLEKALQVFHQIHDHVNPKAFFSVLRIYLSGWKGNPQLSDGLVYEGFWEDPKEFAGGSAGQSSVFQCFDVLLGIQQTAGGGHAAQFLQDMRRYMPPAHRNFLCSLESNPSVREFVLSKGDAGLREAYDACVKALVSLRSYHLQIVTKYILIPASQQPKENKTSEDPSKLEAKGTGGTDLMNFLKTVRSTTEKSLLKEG
row,IC50 [µM],SMILES
1,0.1,CCc1cc(Nc2cnn[nH]2)ccc1Cl
2,< 0.1,CCc1cc(Cl)ccc1Nc1cnn[nH]1
3,1,CS(=O)(=O)NCc1cc(Cl)ccc1Nc1cnn[nH]1
4,< 0.1,Cc1cc(F)ccc1Nc1c[nH]nn1
5,1,O=C(O)C1CC(Cc2cc(Cl)ccc2Nc2cn[nH]n2)C1 (stereo unspecified)
6,0.1,N#Cc1cc(Nc2cn[nH]n2)ccc1Cl
